One series concerns MCF-7/DOX (MDR) cells. The experiment in a line: MTT cytotoxicity assay, MDR MCF-7/DOX cells. Particulars: for ID50 MCF-7/DOX (MDR): MDR-overexpressing MCF-7/DOX cells, MTT, 72 hours; for RI (resistance index) MCF-7/DOX vs MCF-7: ratio of ID50 in MCF-7 and MCF-7/DOX cells. (In general: Tetrazolium assays rely on reduction of a dye to a coloured formazan, in cell work by metabolically active cells.)

Another series relates to KB cells. The experiment in a line: MTT cytotoxicity assay, sensitive KB cells. Particulars: sensitive human carcinoma KB cells, 72 hours.
For a further series, the system named is MCF-7/VP-16 (MRP) cells. Particulars: for ID50 MCF-7/VP-16 (MRP): MRP-overexpressing MCF-7/VP-16 cells, MTT, 72 hours; for RI (resistance index) MCF-7/VP-16 vs MCF-7: ratio of ID50 in MCF-7 and MCF-7/VP-16 cells.
The next series concerns KBVI (MDR) cells. The experiment in a line: MTT cytotoxicity assay, multi-drug-resistant KBV1 cells. Particulars: for ID50 KBVI (MDR): multi-drug-resistant KBV1 cells overexpressing MDR1 (P-gp), MTT, 72 hours; for RI (resistance index) KBVI vs KB: ratio of ID50 in KB and KBVI cells.
In the next series the test system is MCF-7 cells. The experiment in a line: MTT cytotoxicity assay, wild-type MCF-7 cells. Particulars: for ID50 MCF-7: sensitive human breast carcinoma MCF-7 cells, MTT, 72 hours; for cytotoxicity in sensitive MCF-7 cells, in words: compared with DOX.
A further series has as its system amyloid fibrils. Particulars: cited from earlier work.
Another series deals with amyloid enhancing factor. Particulars: preincubation of the amyloid enhancing factor with IDOX; cited from earlier work.
A further series relates to prion disease. Particulars: cited from earlier work.
A further series relates to amyloidosis. Particulars: as a result of amyloid resorption; cited from earlier work.

In brackets after ≈: the same amount, converted by molar mass.

Regarding 6′-fluoro-doxorubicin [WP 743], in the series with MCF-7/DOX (MDR) cells, the “ID50 MCF-7/DOX (MDR)” value is greater than 10 µg/mL and the “RI (resistance index) MCF-7/DOX vs MCF-7” value was determined as 50. For the same compound, in the series on KB cells, the “ID50 KB” value was 0.64 µg/mL. In the series on MCF-7/VP-16 (MRP) cells, the “ID50 MCF-7/VP-16 (MRP)” value was determined as 2.3 µg/mL and the “RI (resistance index) MCF-7/VP-16 vs MCF-7” value was 11.5. In addition, in the series on KBVI (MDR) cells, the “ID50 KBVI (MDR)” value is 41 µg/mL and the “RI (resistance index) KBVI vs KB” value came to 64. The “ID50 MCF-7” value in the series on MCF-7 cells was determined as 0.2 µg/mL.

Regarding `COc1cccc2c1C(=O)c1c(O)c3c(c(O)c1C2=O)CC(O)(C(=O)CO)CC3OC1CC(O)C(F)(F)C(C)O1` (centres unmarked) [WP 600, 3′-deamino-4′-deoxy-4′,4′-difluoro-3′-hydroxy-doxorubicin], the “ID50 KBVI (MDR)” value with KBVI (MDR) cells was 16.9 ± 2.3 µg/mL (≈ 29.9 µM).

For the compound `COc1cccc2c1C(=O)c1c(O)c3c(c(O)c1C2=O)CC(O)(C(C)=O)CC3OC1CC(N)C(F)C(C)O1.Cl` (centres unmarked) [WP 715, 4′-deoxy-4′-fluoro-daunorubicin hydrochloride], in the series on MCF-7/DOX (MDR) cells, the “cytotoxicity against resistant MCF-7/DOX cells, in words” value is recorded as “highly cytotoxic against resistant cells” and the “ID50 MCF-7/DOX (MDR)” value is 2.2 µg/mL. Also, the “ID50 KB” value with KB cells came to 3.15 ± 0.9 µg/mL. Further, the “ID50 KBVI (MDR)” value with KBVI (MDR) cells was 4.1 ± 0.6 µg/mL. In addition, in the series on MCF-7 cells, the “cytotoxicity in sensitive MCF-7 cells, in words” value is “less potent than DOX” and the “ID50 MCF-7” value came to 1.5 ± 1.4 µg/mL.

`COc1cccc2c1C(=O)c1c(O)c3c(c(O)c1C2=O)C[C@@](O)(C(=O)CO)C[C@@H]3O[C@H]1C[C@H](N)[C@H](O)[C@H](C)O1` [DOX, doxorubicin, reference compound]: the “RI fold higher than that of WP 715 and WP 722” value with MCF-7/DOX (MDR) cells (MCF-7/DOX cells) worked out at 180 fold. In the series with MCF-7/DOX (MDR) cells, the “ID50 MCF-7/DOX (MDR)” value was greater than 100 µg/mL and the “RI (resistance index) MCF-7/DOX vs MCF-7” value is given as greater than 263. In the series with KB cells, the “ID50 KB” value was 4.1 ± 0.3 µg/mL (≈ 7.54 µM). Moreover, in the series with MCF-7/VP-16 (MRP) cells, the “ID50 MCF-7/VP-16 (MRP)” value turned out to be 6.2 µg/mL (≈ 11.4 µM) and the “RI (resistance index) MCF-7/VP-16 vs MCF-7” value was determined as 16.3. Also, in the series on KBVI (MDR) cells, the “cytotoxicity against MDR KB-V1 cells, in words” value was “inactive” and the “ID50 KBVI (MDR)” value was greater than 100 µg/mL. For the same compound, the “ID50 MCF-7” value with MCF-7 cells is 0.38 µg/mL (≈ 0.699 µM).

Regarding `COc1cccc2c1C(=O)c1c(O)c3c(c(O)c1C2=O)CC(O)(C(=O)CO)CC3OC1CC(O)C(F)C(C)O1` (centres unmarked) [WP 563, 3′-Deamino-4′-fluoro-3′-hydroxydoxorubicin], in the series on KBVI (MDR) cells, the “ID50 KBVI (MDR)” value was determined as 2.74 ± 2.9 µg/mL (≈ 5.01 µM).

As for `COc1cccc2c1C(=O)c1c(O)c3c(c(O)c1C2=O)CC(O)(C(=O)CO)CC3OC1CC(N)C(F)C(C)O1` (centres unmarked) [WP 722, 4′-deoxy-4′-fluoro-doxorubicin], in the series with MCF-7/DOX (MDR) cells, the “cytotoxicity against resistant MCF-7/DOX cells, in words” value was “highly cytotoxic against resistant cells” and the “ID50 MCF-7/DOX (MDR)” value stood at 1.9 µg/mL (≈ 3.48 µM). Also, the “ID50 KB” value with KB cells amounted to 2.1 ± 2.5 µg/mL (≈ 3.85 µM). Besides, in the series with MCF-7/VP-16 (MRP) cells, the “ID50 MCF-7/VP-16 (MRP)” value is 4.2 ± 5.0 µg/mL (≈ 7.7 µM) and the “RI (resistance index) MCF-7/VP-16 vs MCF-7” value was 3.23. Also, in the series on MCF-7/VP-16 (MRP) cells (compared with DOX), the “cytotoxicity in MCF-7/VP-16 cells, in words” value was “significant increase in cytotoxicity”. Besides, in the series on KBVI (MDR) cells, the “ID50 KBVI (MDR)” value was 3.3 ± 0.4 µg/mL (≈ 6.05 µM) and the “RI (resistance index) KBVI vs KB” value is recorded as 1.57. In addition, in the series with MCF-7 cells, the “cytotoxicity in sensitive MCF-7 cells, in words” value was “less potent than DOX” and the “ID50 MCF-7” value was determined as 1.3 ± 1.6 µg/mL (≈ 2.38 µM).

Take `COc1cccc2c1C(=O)c1c(O)c3c(c(O)c1C2=O)CC(O)(C(=O)CO)CC3OC1CC(N)C(I)C(C)O1` (centres unmarked) [IDOX, 4′-iodo-4′-deoxydoxorubicin]: the “binding to amyloid fibrils” value in the series on amyloid fibrils is “binds strongly”. In addition, the “formation of amyloid deposits” value in the series with amyloid enhancing factor was “significantly reduces formation of amyloid deposits”. In addition, in the series on prion disease (Syrian-hamster prion model), the onset of disease entry is given as “delayed onset of the disease” and the survival time result is given as “prolonged”. Moreover, the “accumulation of amyloid fibrils in brain” value with prion disease (neuropathological examination, versus untreated controls) is reported as “delay in the accumulation of amyloid fibrils”. For the same compound, in the series on amyloidosis, the “clinical outcome in patients with amyloidosis” value is “substantial clinical improvement”.

(Values after patent US6355784B1, “Methods and compositions for the manufacture of halogenated anthracyclines with increased antitumor activity, other anthracyclines, halogenated sugars, and glycosyl donors” (priority 1998, dated 2002).)
